Read-outs that look alike come from different tables or passages of the source.

One test addresses T1, F1F0-ATPase (Bos taurus, UniProt P13621).
T1 construct: from tissue
In words: Inhibition of F1F0-ATPase activity in synthesizing ATP. It is filed as biochemical. The conditions noted are these: inhibition of ATP synthesis; detection limit IC50=16 μM; read-out: ATP Syn IC50. The procedure: (§1) Exemplary compounds described in above Examples were tested for activity against F1F0-ATPase by measuring the ability of the compounds to inhibit ATP synthesis. In addition, the compounds were assessed for cytotoxicity in Ramos cells. Inhibition of F1F0-ATPase activity in synthesizing ATP and cytotoxicity in Ramos cells were measured according to the procedures described in K. M. Johnson et al. Chemistry & Biology 2005, 12, 485-496.

Another test relates to Ramos cells. Description: Cytotoxicity in Ramos cells. It is filed as cell-based. The conditions noted are these: detection limit EC50=16 μM, read-out: Ramos Cell EC50. The procedure: as §1

In the case of `COC[C@H](C)N/C(=N/C(=O)c1ccc(Cl)cc1)Nc1n[nH]c2cc(C(F)(F)F)ccc12` [Compound A-66], at F1F0-ATPase, the IC50 is under 5 µM. In the test on Ramos cells, the EC50 was under 5 µM.

For `CC1(N/C(=N/C(=O)c2ccc(Cl)cc2)Nc2n[nH]c3ccccc23)CCC1` [Compound A-1], the IC50 at F1F0-ATPase was under 5 µM. For the same compound, the EC50 in the test on Ramos cells (Homo sapiens) is 5 to 16 µM.

As for `CC(C)CNC(=NC(=O)c1ccc(F)c(F)c1)Nc1n[nH]c2c(C(F)(F)F)cccc12` [Compound A-58], the IC50 at F1F0-ATPase lay in the range of 5 to 16 µM. In addition, the EC50 with Ramos cells (Homo sapiens) was 5 to 16 µM.

`CC(C)(C)N/C(=N/C(=O)c1ccc(N2CCOCC2)nc1)Nc1n[nH]c2cc(C(F)(F)F)ccc12` [Compound A-23]: the IC50 at F1F0-ATPase is under 5 µM. Further, the 50% effective concentration (EC50) in the test with Ramos cells was 5 to 16 µM.

In the case of `CC(C)(C)CNC(=NC(=O)c1ccc(N2CCOCC2)nc1)Nc1n[nH]c2cc(C(F)(F)F)ccc12` [Compound A-27], the IC50 at F1F0-ATPase is under 5 µM. Also, the concentration giving a half-maximal response (EC50) in the test with Ramos cells (Homo sapiens) is over 16 µM.

Consider `COC[C@H](C)N/C(=N/C(=O)c1ccc(F)c(F)c1)Nc1n[nH]c2ccc(C(F)(F)F)cc12` [Compound A-53], for which the half-inhibitory concentration (IC50) at F1F0-ATPase is under 5 µM. Further, the EC50 with Ramos cells was over 16 µM.

As for `COC[C@H](C)N/C(=N/C(=O)c1ccc(F)c(F)c1)Nc1n[nH]c2ccccc12` [Compound A-37], the IC50 on F1F0-ATPase is 5 to 16 µM. Besides, the EC50 in the test on Ramos cells is over 16 µM.

Take `CC(C)CNC(=NC(=O)c1cccc(Cl)c1)Nc1n[nH]c2cc(Cl)c(F)cc12` [Compound A-105]: the IC50 at F1F0-ATPase is under 5 µM. Further, the EC50 with Ramos cells lay in the range of 5 to 16 µM.

In the case of `CC(C)(C)N/C(=N/C(=O)c1ccc(F)c(F)c1)Nc1n[nH]c2cccc(F)c12` [Compound A-5], the IC50 on F1F0-ATPase was under 5 µM. The EC50 with Ramos cells is under 5 µM.

As for `CCOCCN/C(=N/C(=O)c1ccc(F)c(F)c1)Nc1n[nH]c2cncc(Cl)c12` [Compound A-44], the IC50 on F1F0-ATPase was over 16 µM. The EC50 in the test on Ramos cells was over 16 µM.

As to `CC(C)CN/C(=N/C(=O)c1ccc(F)c(F)c1)Nc1n[nH]c2cncc(Cl)c12` [Compound A-41], at F1F0-ATPase, the IC50 was under 5 µM. Also, the EC50 with Ramos cells was under 5 µM.

Consider `CC(C)CNC(=NC(=O)c1ccc(F)c(F)c1)Nc1n[nH]c2c(F)cccc12` [Compound A-73], for which the IC50 on F1F0-ATPase fell in the range of 5 to 16 µM. Further, the EC50 in the test on Ramos cells is under 5 µM.

As to `CC(C)(O)CN/C(=N/C(=O)c1ccc(Cl)cc1)Nc1n[nH]c2cc(F)ccc12` [Compound 2, 4-Chloro-N-((6-fluoro-1H-indazol-3-ylamino)((2-hydroxy-2-methylpropyl)amino)methylene)benzamide], on F1F0-ATPase, the IC50 was under 5 µM. Moreover, the EC50 in the test on Ramos cells (Homo sapiens) is over 16 µM.

In the case of `CC(C)CN/C(=N/C(=O)c1ccc(F)c(F)c1)Nc1n[nH]c2cc(Br)ccc12` [Compound A-68], the IC50 at F1F0-ATPase was under 5 µM. In addition, the EC50 in the test with Ramos cells is under 5 µM.

For `COCC(C)NC(=NC(=O)c1ccc(F)c(F)c1)Nc1n[nH]c2c(Cl)cccc12` (stereo not shown) [Compound A-84], the IC50 on F1F0-ATPase was in the range of 5 to 16 µM. The EC50 with Ramos cells (Homo sapiens) is over 16 µM.

Turning to `CC(C)(C)N/C(=N/C(=O)c1ccc(O)cc1)Nc1n[nH]c2cc(F)ccc12` [Compound A-92], the IC50 on F1F0-ATPase is 5 to 16 µM. In the test with Ramos cells, the EC50 was under 5 µM.

With `CC(C)(C)N/C(=N/C(=O)c1ccc(F)c(F)c1)Nc1n[nH]c2cncc(F)c12` [Compound A-32], the IC50 on F1F0-ATPase is under 5 µM. The EC50 with Ramos cells fell in the range of 5 to 16 µM.

As to `CCOCCCNC(=NC(=O)c1ccc(F)c(F)c1)Nc1n[nH]c2cc(C(F)(F)F)ccc12` [Compound A-11], the IC50 at F1F0-ATPase was under 5 µM. Moreover, in the test with Ramos cells, the EC50 was under 5 µM.

On to `CC(C)(C)N/C(=N/C(=O)c1ccc(F)c(F)c1)Nc1n[nH]c2cc(C(F)(F)F)ccc12` [Compound A-7], for which the IC50 on F1F0-ATPase is over 16 µM. In the test with Ramos cells, the EC50 was under 5 µM.

As for `O=C(/N=C(\Nc1n[nH]c2cc(C(F)(F)F)ccc12)NC1CCOCC1)c1ccc(Cl)c(F)c1` [Compound A-21], the IC50 at F1F0-ATPase is under 5 µM. In addition, the EC50 in the test with Ramos cells (Homo sapiens) lay within 5 to 16 µM.

With `CC(C)(C)N/C(=N/C(=O)c1ccc(F)c(F)c1)Nc1n[nH]c2c(F)cccc12` [Compound A-72], the IC50 at F1F0-ATPase lay within 5 to 16 µM. Moreover, the EC50 in the test on Ramos cells is under 5 µM.

As to `COC[C@H](C)N/C(=N/C(=O)c1ccc(F)c(F)c1)Nc1n[nH]c2cc(F)ccc12` [Compound A-79], the IC50 at F1F0-ATPase is under 5 µM. Moreover, the EC50 with Ramos cells is under 5 µM.

For the compound `COC[C@H](C)N/C(=N/C(=O)c1ccc(F)c(F)c1)Nc1n[nH]c2cncc(F)c12` [Compound A-33], the IC50 on F1F0-ATPase is over 16 µM. Moreover, in the test with Ramos cells, the EC50 was over 16 µM.

Take `CCOCCN/C(=N/C(=O)c1cccc(Cl)c1)Nc1n[nH]c2cc(F)ccc12` [Compound A-86]: the IC50 at F1F0-ATPase is over 16 µM. In the test on Ramos cells, the EC50 fell in the range of 5 to 16 µM.

Consider `COC[C@H](C)N/C(=N/C(=O)c1cccc(Cl)c1)Nc1n[nH]c2cc(Cl)ccc12` [Compound A-78], for which the IC50 on F1F0-ATPase was under 5 µM. For the same compound, the EC50 in the test on Ramos cells was under 5 µM.

In the case of `CC(C)(C)CN/C(=N/C(=O)c1ccc(F)c(F)c1)Nc1n[nH]c2cncc(Cl)c12` [Compound A-42], at F1F0-ATPase, the IC50 was under 5 µM. For the same compound, the EC50 with Ramos cells lay within 5 to 16 µM.

Regarding `COCC(C)NC(=NC(=O)c1ccc(F)c(F)c1)Nc1n[nH]c2c(C(F)(F)F)cccc12` (stereo not shown) [Compound A-59], the IC50 at F1F0-ATPase is over 16 µM. In addition, the EC50 in the test on Ramos cells (Homo sapiens) is over 16 µM.

For the compound `CC(C)CN/C(=N/C(=O)c1ccc(F)c(F)c1)Nc1n[nH]c2cccnc12` [Compound A-46], the IC50 at F1F0-ATPase was over 16 µM. The EC50 in the test with Ramos cells was over 16 µM.

With `CC(C)(C)N/C(=N/C(=O)c1ccc(F)c(F)c1)Nc1n[nH]c2ccccc12` [Compound A-34], the IC50 on F1F0-ATPase lay in the range of 5 to 16 µM. Moreover, in the test with Ramos cells, the EC50 was in the range of 5 to 16 µM.

For the origin of these results see patent US9920012B2, “Indazole guanidine F1F0-ATPase inhibitors and therapeutic uses thereof” (Lycera Corporation, priority 2012, dated 2018).
